What was measured:
PI3Kδ = PI3Kδ (Homo sapiens, UniProt O00329); experiment: ADP-Glo Assay II, PI3Kδ; type: biochemical; settings: read-out: IC50 for inhibition of PI3Kδ activity
Procedure: (§1) 1) The compound was diluted using Echo from Labcyte company, 50 nL of the compound was transferred into an assay plate, and centrifuged at a speed of 1000 rpm for 10 sec.
(§2) 2) A kinase/lipid substrate mixed solution and a kinase reaction buffer/lipid substrate mixed solution were prepared; the kinase/lipid substrate mixed solution was added into columns 3-24 of the assay plate, 3 μL per well; the kinase reaction buffer/lipid substrate mixed solution was added into columns 1-2 of the assay plat, 3 μL per well; and the plate was centrifuged at a speed of 1000 rpm for 10 sec.
(§3) 3) An ATP solution was prepared, and added into the assay plate, 2 μL per well; the plate was centrifuged at a speed of 1000 rpm for 10 sec, shaken and mixed in 2nd gear mode on a plate shaker for 1 min, further centrifuged at a speed of 1000 rpm for 10 sec, and incubated for 120 min at 23° C. […]
(§4) 5) A kinase detection reagent was prepared, added into the assay plate, 10 μL per well; the plate was centrifuged at a speed of 1000 rpm for 10 sec, shaken and mixed in 2nd gear mode on a plate shaker for 1 min, further centrifuged at a speed of 1000 rpm for 10 sec, incubated for 30 min at 23° C.; and then read on the multi-marker detector Envision.
(§5) IC50 results were analyzed by XLfit5 (Formula 205) of IDBS company.

PI3Kβ = PI3Kβ (Homo sapiens, UniProt P42338); experiment: ADP-Glo Assay II, PI3Kβ; type: biochemical; settings: read-out: IC50 for inhibition of PI3Kβ activity
Chain of PI3Kβ (P42338 whole entry): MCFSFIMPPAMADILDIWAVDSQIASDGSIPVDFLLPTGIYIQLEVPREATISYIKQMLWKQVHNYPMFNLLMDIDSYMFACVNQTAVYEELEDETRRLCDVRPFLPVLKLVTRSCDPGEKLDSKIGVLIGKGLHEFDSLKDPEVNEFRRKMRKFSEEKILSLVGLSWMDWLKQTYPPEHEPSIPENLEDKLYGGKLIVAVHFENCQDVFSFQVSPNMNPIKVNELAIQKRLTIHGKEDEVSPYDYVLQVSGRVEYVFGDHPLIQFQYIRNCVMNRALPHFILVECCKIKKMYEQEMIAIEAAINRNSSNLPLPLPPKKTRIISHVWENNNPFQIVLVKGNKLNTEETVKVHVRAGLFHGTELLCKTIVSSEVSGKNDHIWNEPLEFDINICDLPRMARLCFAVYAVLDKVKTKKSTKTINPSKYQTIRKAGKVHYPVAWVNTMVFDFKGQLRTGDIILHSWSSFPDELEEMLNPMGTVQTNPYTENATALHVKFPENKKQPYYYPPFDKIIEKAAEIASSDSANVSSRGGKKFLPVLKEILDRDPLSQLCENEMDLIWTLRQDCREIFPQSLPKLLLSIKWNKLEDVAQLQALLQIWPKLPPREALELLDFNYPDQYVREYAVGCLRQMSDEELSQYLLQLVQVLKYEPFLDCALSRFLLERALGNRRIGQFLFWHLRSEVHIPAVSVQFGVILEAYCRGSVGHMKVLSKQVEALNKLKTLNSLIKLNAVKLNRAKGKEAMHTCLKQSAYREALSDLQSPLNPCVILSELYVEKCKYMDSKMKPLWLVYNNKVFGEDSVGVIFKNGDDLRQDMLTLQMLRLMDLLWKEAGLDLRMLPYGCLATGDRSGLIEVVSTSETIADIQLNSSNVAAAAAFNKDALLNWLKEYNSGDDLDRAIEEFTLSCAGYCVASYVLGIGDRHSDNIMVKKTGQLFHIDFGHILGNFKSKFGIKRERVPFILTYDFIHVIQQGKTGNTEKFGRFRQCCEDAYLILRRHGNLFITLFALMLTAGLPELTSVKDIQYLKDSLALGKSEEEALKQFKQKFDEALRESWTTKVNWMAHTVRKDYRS
Chain of PI3Kβ (P27986 whole entry partner): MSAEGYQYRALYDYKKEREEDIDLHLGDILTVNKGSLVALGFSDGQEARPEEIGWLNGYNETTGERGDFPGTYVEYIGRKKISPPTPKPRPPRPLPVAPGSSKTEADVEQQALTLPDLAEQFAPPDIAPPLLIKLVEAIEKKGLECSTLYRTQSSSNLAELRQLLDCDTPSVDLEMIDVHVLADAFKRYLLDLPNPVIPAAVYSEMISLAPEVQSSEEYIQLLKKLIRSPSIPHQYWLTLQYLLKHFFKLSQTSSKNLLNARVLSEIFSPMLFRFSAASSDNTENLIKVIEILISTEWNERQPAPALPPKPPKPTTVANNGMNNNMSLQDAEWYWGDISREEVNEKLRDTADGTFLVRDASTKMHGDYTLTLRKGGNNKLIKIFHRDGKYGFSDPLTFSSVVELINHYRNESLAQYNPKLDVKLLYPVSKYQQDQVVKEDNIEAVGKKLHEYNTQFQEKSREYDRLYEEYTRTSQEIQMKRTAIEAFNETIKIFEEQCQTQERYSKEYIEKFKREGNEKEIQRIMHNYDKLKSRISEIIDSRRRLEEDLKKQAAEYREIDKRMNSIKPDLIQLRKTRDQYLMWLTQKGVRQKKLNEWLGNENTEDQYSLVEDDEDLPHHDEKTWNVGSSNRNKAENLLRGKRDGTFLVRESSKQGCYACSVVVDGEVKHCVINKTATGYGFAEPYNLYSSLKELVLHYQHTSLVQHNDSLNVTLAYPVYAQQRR
Procedure: as §1, §2, §3, §4, §5

[1] = test system: human colon cancer CO-04-0032; experiment: In vivo pharmacodynamics, subcutaneous xenograft tumor model of human colon cancer CO-04-0032; set-up: species or system BALB/c nude mice
Procedure: The studies were conducted to examine if the test drugs have in vivo efficacy in the human colon cancer CO-04-0032 animal model and the gastric cancer ST-02-0013 animal model. The descriptions about the animal feeding, feed ingredients, experimental observation, experimental indexes, experimental termination, as well as data analysis in the tests were as follows:
Animal Grouping: The animals were weighed and the tumor volume was measured prior to administration. The animals were randomly grouped according to tumor volume (randomized block design).
Experimental Indexes: The experimental indexes were used to examine whether tumor growth is inhibited, delayed or cured. Tumor diameter was measured twice a week with a vernier caliper. The tumor volume was calculated by the formula: V=0.5a×b^2, wherein a and b represent the long diameter and short diameter of a tumor, respectively. Tumor growth inhibition (TGI) of a compound was evaluated with T-C (day) and T/C (%). […]
Data Analysis: One-way ANOVA was used for comparison of three or more groups. […] All data was analyzed using SPSS 17.0. p<0.05 indicated a significant difference. […]

Chain of PI3Kδ (O00329 whole entry): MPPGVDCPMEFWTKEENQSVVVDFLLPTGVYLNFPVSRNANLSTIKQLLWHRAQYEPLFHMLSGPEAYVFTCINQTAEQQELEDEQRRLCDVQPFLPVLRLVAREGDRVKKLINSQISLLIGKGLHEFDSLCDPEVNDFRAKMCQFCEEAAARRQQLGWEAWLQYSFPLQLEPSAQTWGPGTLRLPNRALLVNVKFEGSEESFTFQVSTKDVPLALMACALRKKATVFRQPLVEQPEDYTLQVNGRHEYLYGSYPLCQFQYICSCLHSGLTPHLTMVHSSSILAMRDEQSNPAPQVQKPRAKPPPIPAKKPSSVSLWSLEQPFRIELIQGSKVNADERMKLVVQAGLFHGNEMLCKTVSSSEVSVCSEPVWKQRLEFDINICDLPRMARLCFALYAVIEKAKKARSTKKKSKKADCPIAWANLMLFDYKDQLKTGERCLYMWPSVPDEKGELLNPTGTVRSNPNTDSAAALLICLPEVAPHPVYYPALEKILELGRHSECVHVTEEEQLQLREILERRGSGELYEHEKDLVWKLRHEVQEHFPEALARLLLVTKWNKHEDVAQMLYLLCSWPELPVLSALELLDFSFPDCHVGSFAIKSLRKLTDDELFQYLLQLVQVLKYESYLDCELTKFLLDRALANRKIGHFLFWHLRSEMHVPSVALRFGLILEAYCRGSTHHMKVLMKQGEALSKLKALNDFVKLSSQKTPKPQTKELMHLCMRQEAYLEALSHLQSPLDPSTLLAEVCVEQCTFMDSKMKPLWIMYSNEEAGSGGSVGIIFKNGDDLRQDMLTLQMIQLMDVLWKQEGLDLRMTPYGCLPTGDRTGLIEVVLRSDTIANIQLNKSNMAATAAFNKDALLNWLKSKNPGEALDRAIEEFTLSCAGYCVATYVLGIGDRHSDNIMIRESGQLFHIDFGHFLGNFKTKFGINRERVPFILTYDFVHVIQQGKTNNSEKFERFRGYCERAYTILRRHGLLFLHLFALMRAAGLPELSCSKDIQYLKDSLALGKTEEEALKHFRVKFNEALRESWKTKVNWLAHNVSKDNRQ
Chain of PI3Kδ (P27986 whole entry partner): as the sequence (P27986 whole entry partner) above

IC50 (PI3Kδ): 0.5 ± 0.1 nM | IC50 (PI3Kβ): 9.9 ± 2.7 nM
SMILES: COc1ncc(-c2ccc3ncc(OCCN(C)C)c(=O)n3c2)cc1NS(=O)(=O)c1ccc(F)cc1Cl [Compound 1]
anti-tumor activity compared to the positive control drug BKM120 ([1]; colon cancer CO-04-0032): more excellent anti-tumor activity | increase in tumor volume ([1]; from day 15 to day 30 of the administration, CO-04-0032): almost no increase in tumor volume

— patent US10479789B2, “Pyrido[1,2-A]pyrimidone analog, crystal form thereof, intermediate thereof and preparation method therefor” (Chia Tai Tianqing Pharmaceutical Group Co., Ltd., priority 2015, dated 2019)
